Experimental findings from patent publication US6156757A, “1,2,3,4-tetrahydro-benzofuro[3,2-C]pyridine derivatives” (Janssen Pharmaceutica N.V., priority 1997, dated 2000) are described below.

In one test the test system is α2 -adrenoceptor. Briefly: Xylazine-induced loss of righting reflex in rats. Format: in vivo. Particulars: one hour before xylazine 15 mg/kg i.v., male rats, lowest tested dose at which at least 66% of animals showed no loss of righting reflex. How it is done:
This test is based upon the fact that centrally acting α2 -adrenoceptor antagonists reverse the loss of righting reflex induced by an intravenous injection of the α2 agonist xylazine. One hour before injection of xylazine (15 mg/kg, i.v.), male rats (200-250 g) were pretreated with a test compound (er os (p.o.) or subcutaneously (s.c.)) or solvent.

The target of test [1] is T1, cloned human α2C receptors (Homo sapiens, UniProt P18825).
T1 construct: expressed in transfected cells; host or cells: CHO cells
T1 sequence (P18825 1-462): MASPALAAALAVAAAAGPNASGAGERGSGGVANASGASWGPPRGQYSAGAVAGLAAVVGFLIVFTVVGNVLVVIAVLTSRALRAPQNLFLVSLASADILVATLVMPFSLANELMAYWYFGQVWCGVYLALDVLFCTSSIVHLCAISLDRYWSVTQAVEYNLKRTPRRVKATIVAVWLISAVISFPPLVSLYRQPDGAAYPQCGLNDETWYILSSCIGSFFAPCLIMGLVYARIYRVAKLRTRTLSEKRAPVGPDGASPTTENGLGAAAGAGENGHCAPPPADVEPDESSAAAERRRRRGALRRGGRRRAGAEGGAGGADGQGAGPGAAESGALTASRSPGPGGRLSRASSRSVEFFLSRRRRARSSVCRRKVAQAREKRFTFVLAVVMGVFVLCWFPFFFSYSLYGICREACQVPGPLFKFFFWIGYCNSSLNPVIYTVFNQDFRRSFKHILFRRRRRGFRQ
The test can be described thus: In vitro binding affinity for α2C receptors (3H-rauwolscine competition binding). Particulars: at a test concentration of 10^-8 M or less; CHO cell expressing cloned human α2C receptors.

The target of test [2] is T2, cloned human α2A receptors (Homo sapiens, UniProt P08913).
T2 sequence (P08913 1-465): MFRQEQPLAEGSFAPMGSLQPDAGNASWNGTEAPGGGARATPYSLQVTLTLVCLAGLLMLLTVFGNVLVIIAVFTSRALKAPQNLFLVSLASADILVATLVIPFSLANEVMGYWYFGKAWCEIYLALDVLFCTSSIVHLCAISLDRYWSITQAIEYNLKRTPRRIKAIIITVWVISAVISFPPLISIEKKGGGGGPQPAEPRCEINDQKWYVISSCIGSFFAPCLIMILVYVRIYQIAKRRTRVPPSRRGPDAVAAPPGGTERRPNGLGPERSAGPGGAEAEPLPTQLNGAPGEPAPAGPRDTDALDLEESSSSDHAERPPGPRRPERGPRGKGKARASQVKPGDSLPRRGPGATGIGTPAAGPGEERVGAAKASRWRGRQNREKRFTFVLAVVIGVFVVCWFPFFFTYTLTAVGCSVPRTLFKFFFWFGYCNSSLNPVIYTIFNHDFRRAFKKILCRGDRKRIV
The test can be described thus: In vitro binding affinity for α2A receptors (3H-rauwolscine competition binding). The note with it: at a test concentration of 10^-8 M or less; CHO cell expressing cloned human α2A receptors. How it is done: The interaction of the compounds of formula (I) with α2 receptors was assessed in in vitro radioligand binding experiments.
In general, a low concentration of a radioligand with a high binding affinity for a particular receptor is incubated with a sample of a tissue preparation enriched in a particular receptor or with a preparation of cells expressing cloned human receptors in a buffered medium. During the incubation, the radioligand binds to the receptor. When equilibrium of binding is reached, the receptor bound radioactivity is separated from the non-bound radioactivity, and the receptor bound activity is counted. The interaction of the test compounds with the receptor is assessed in competition binding experiments. Various concentrations of the test compound are added to the incubation mixture containing the receptor preparation and the radioligand. Binding of the radioligand will be inhibited by the test compound in proportion to its binding affinity and its concentration.
The radioligand used for α2A receptor binding is ^3 H-rauwolscine and the receptor preparation used is the Chinese Hamster Ovary (CHO) cell expressing cloned human α2A receptors.

As to `Cc1nc2sccn2c(=O)c1CCN1CCc2oc3ccccc3c2C1` [Compound 1, 6-[[3,4-dihydrobenzofuro[3,2-c]pyridin-2(1H)-yl]ethyl]-7-methyl-5H-thiazolo-[3,2-a]pyrimidin-5-one], the “LAD in mg/kg (lowest active dose for xylazine antagonism)” value (shortened to “LAD in mg/kg”) with α2 -adrenoceptor (s.c.) turned out to be 0.63 mg/kg.
Take `Cc1nc2n(c(=O)c1CCN1CCc3oc4ccccc4c3C1)CCCC2` [Compound 2]: the “LAD in mg/kg” value with α2 -adrenoceptor (p.o.) turned out to be 1.25 mg/kg.
Regarding `Cc1nc2ccccn2c(=O)c1CCN1CCc2oc3ccccc3c2C1` [Compound 3, 3-[2-[3,4-dihydrobenzofuro[3,2-c]pyridin-2(1H)-yl]ethyl]-2-methyl-4H-pyrido[1,2-a]pyrimidin-4-one], the “LAD in mg/kg” value in the test with α2 -adrenoceptor (p.o.) amounted to 0.31 mg/kg; with α2 -adrenoceptor (s.c.), 0.08 mg/kg.
Take `Cc1cc2nc(C)c(CCN3CCc4oc5ccccc5c4C3)c(=O)n2o1` [Compound 4]: the “LAD in mg/kg” value in the test on α2 -adrenoceptor (p.o.) is listed as 1.25 mg/kg.
On to `Cc1nc2scc(C)n2c(=O)c1CCN1CCc2oc3ccccc3c2C1` [Compound 5, 6-[[3,4-dihydrobenzofuro[3,2-c]pyridin-2(lH)-yl]ethyl]-3,7-dimethyl-5H-thiazolo-[3,2-a]pyrimidin-5-one], for which, in the test on α2 -adrenoceptor (s.c.), the “LAD in mg/kg” value stood at 0.63 mg/kg.
With `Cc1nc2n(c(=O)c1CCN1CCc3oc4ccccc4c3C1)CCS2` [Compound 6], in the test with α2 -adrenoceptor (s.c.), the “LAD in mg/kg” value was determined as 0.63 mg/kg.
As a reminder, the inhibition is the drop in the measured response relative to a control, in per cent. Regarding `Cc1nc2n(C)c(C)cn2c(=O)c1CCN1CCc2oc3ccccc3c2C1` [Compound 8], in test [1], the inhibition at up to 0.01 µM was > 50%.
The same measure, in the same setting: the figure for `Cc1nc2n(c(=O)c1CCN1CCc3oc4ccccc4c3C1)CCCC2C` (stereo not shown) [Compound 13] is > 50%; for `O=c1c(CCN2CCc3oc4ccccc4c3C2)c(Cc2ccccc2)nc2ccccn12` [Compound 14] it is > 50%.
In the case of `Cc1nc2sccn2c(=O)c1CCN1CCc2oc3ccc(F)cc3c2C1` [Compound 16], in the test with α2 -adrenoceptor (p.o.), the “LAD in mg/kg” value is 10.00 mg/kg.
For the molecule `Cc1nc2ccccn2c(=O)c1CCN1CCc2oc3ccc(F)cc3c2C1` [Compound 17], the “LAD in mg/kg” value in the test on α2 -adrenoceptor (p.o.) and in the test with α2 -adrenoceptor (s.c.) was 10.00 mg/kg in each case. For the same molecule, the inhibition in test [2] was > 50%.
`Cc1nc2n(c(=O)c1CCN1CCc3oc4ccc(F)cc4c3C1)CCCC2` [Compound 18]: the “LAD in mg/kg” value with α2 -adrenoceptor (s.c.) was found to be 10.00 mg/kg. Further, the inhibition in test [2] is > 50%.
With `Cc1ccc2oc3c(c2c1)CN(CCc1c(C)nc2sccn2c1=O)CC3` [Compound 19], the “LAD in mg/kg” value in the test with α2 -adrenoceptor (s.c.) was 10.00 mg/kg.
As for `Cc1nc2ccccn2c(=O)c1CCN1CCc2oc3c([N+](=O)[O-])cccc3c2C1` [Compound 22], the “LAD in mg/kg” value with α2 -adrenoceptor (p.o.) came to 10.00 mg/kg.
As to `Cc1nc2ccccn2c(=O)c1CCN1CCc2oc3c(Cl)cccc3c2C1` [Compound 23], the “LAD in mg/kg” value with α2 -adrenoceptor (s.c.) was 2.50 mg/kg. In addition, the inhibition at up to 0.01 µM in test [1] was > 50%.
On to `Cc1nc2ccccn2c(=O)c1CCN1CCc2oc3ccc(Cl)cc3c2C1` [Compound 24], for which the “LAD in mg/kg” value in the test with α2 -adrenoceptor (p.o.) came to 10.00 mg/kg.
Still for that read-out and setting: the same measure for `Cc1nc2n(c(=O)c1CCN1CCc3oc4ccccc4c3C1)CCCC2C` (stereo not shown) [Compound 25]: 10.00 mg/kg.
Take `Cc1nc2ccccn2c(=O)c1CCCN1CCc2oc3ccccc3c2C1` [Compound 26]: in the test with α2 -adrenoceptor (s.c.), the “LAD in mg/kg” value came out at 10.00 mg/kg.
Same read-out and setting: the figure for `Cc1nc2sccn2c(=O)c1CCCN1CCc2oc3ccccc3c2C1` [Compound 27] is 10.00 mg/kg.
Turning to `Cc1nc2n(c(=O)c1CCN1CCc3oc4ccccc4c3C1)CCCS2` [Compound 28], in the test on α2 -adrenoceptor (s.c.), the “LAD in mg/kg” value amounted to 0.63 mg/kg.
For the molecule `O=c1c(CCN2CCc3oc4ccccc4c3C2)c(Cc2ccccc2)nc2ccccn12` [Compound 29], the “LAD in mg/kg” value in the test on α2 -adrenoceptor (s.c.) stood at 10.00 mg/kg.
Still for that read-out and setting: the same measure for `Cc1nc2ccc(Cl)cn2c(=O)c1CCN1CCc2oc3ccccc3c2C1` [Compound 32]: 0.04 mg/kg.
For `Cc1ccc2nc(C)c(CCN3CCc4oc5ccccc5c4C3)c(=O)n2c1` [Compound 34, 3-[2-[3,4-dihydrobenzofuro[3,2-c]pyridin-2(1H)-yl]ethyl]-2,7-dimethyl-4H-pyrido-[1,2-a]pyrimidin-4-one], the “LAD in mg/kg” value in the test with α2 -adrenoceptor (s.c.) came out at 0.16 mg/kg. In addition, in test [2], the inhibition was > 50%. Further, the inhibition at up to 0.01 µM in test [1] is > 50%.
Consider `Cc1nc2c(O)cccn2c(=O)c1CCN1CCc2oc3ccccc3c2C1` [Compound 35], for which the “LAD in mg/kg” value in the test with α2 -adrenoceptor (s.c.) worked out at 10.00 mg/kg.
The same measure, in the same setting: the figure for `Cc1ccn2c(=O)c(CCN3CCc4oc5ccccc5c4C3)c(C)nc2c1` [Compound 36] is 0.63 mg/kg.
Still for that read-out and setting: the figure for `Cc1cc(C)n2c(=O)c(CCN3CCc4oc5ccccc5c4C3)c(C)nc2c1` [Compound 37] is 10.00 mg/kg.
The same measure, in the same setting: the same measure for `Cc1nc2cccc(C)n2c(=O)c1CCN1CCc2oc3ccccc3c2C1` [Compound 39]: 0.63 mg/kg.
Regarding `Cc1nc2c(Cl)cc(Cl)cn2c(=O)c1CCN1CCc2oc3ccccc3c2C1` [Compound 40], the “LAD in mg/kg” value in the test on α2 -adrenoceptor (p.o.) is recorded as 10.00 mg/kg.
Regarding `c1ccc2sc(NCCCCCN3CCc4oc5ccccc5c4C3)nc2c1` [Compound 48], the “LAD in mg/kg” value with α2 -adrenoceptor (s.c.) was 10.00 mg/kg. The inhibition in test [2] was > 50%. Also, the inhibition at up to 0.01 µM in test [1] is > 50%.
As for `c1ccc2sc(NCCCN3CCc4oc5ccccc5c4C3)nc2c1` [Compound 49], the “LAD in mg/kg” value in the test on α2 -adrenoceptor (s.c.) amounted to 10.00 mg/kg. The inhibition in test [2] is > 50%.
Regarding `c1ccc2sc(NCCCCN3CCc4oc5ccccc5c4C3)nc2c1` [Compound 50], the “LAD in mg/kg” value in the test with α2 -adrenoceptor (s.c.) came to 10.00 mg/kg. The inhibition at up to 0.01 µM in test [1] was > 50%.
Regarding `c1ccc2sc(NCCN3CCc4oc5ccccc5c4C3)nc2c1` [Compound 51, N-2-benzothiazole-3,4-dihydrobenzofuro[3,2-c]pyridin-2(1H)-ethanamine (E)-2-butenedioate (1:1)], in the test with α2 -adrenoceptor (s.c.), the “LAD in mg/kg” value stood at 10.00 mg/kg.
On to `CSc1nc(C)c(CCN2CCc3oc4ccccc4c3C2)c(=O)n1C` [Compound 55], for which the “LAD in mg/kg” value in the test on α2 -adrenoceptor (p.o.) is 10.00 mg/kg. Moreover, the inhibition in test [2] was > 50%. The inhibition at up to 0.01 µM in test [1] was > 50%.
As for `Cc1ccc(C(=O)N2CCCC(CN3CCc4oc5ccccc5c4C3)C2)cc1` (stereo not shown) [Compound 57], the “LAD in mg/kg” value with α2 -adrenoceptor (p.o.) was found to be 10.00 mg/kg.
`Cc1ccc(C(=O)N2CCC(CN3CCc4oc5ccccc5c4C3)CC2)cc1` [Compound 58, 4-[(3,4-dihydrobenzofuro[3,2-c]pyridin-2(1H)-yl)methyl]-1-(4-methylbenzoyl)piperidine]: the “LAD in mg/kg” value in the test with α2 -adrenoceptor (p.o.) is reported as 2.50 mg/kg. Further, the inhibition at up to 0.01 µM in test [1] is > 50%.
In the case of `Cn1c(=O)c2c(ncn2CCN2CCc3oc4ccccc4c3C2)n(C)c1=O` [Compound 59], in the test on α2 -adrenoceptor (s.c.), the “LAD in mg/kg” value is given as 10.00 mg/kg.
`O=c1oc2ccccc2n1CCCN1CCc2oc3ccccc3c2C1` [Compound 60]: the “LAD in mg/kg” value in the test with α2 -adrenoceptor (p.o.) stood at 10.00 mg/kg. Further, the inhibition in test [2] was > 50%.
